Results: patent publication US5620676A, “Biologically active ATP analogs” (priority 1995, dated 1997)
Values joined by “and” are separate entries in the source; they are usually repeats but may differ in a detail not shown here. Equal values may be shown once. “Also recorded” adds a separate entry of the source. Read-outs that look alike come from different tables or passages of the source.

What was measured:
[1] = target: T1, P2Y receptor (taenia coli) (Cavia porcellus, UniProt P59902); experiment: Relaxation of carbachol-contracted guinea pig taenia coli; conditions: for activity/potency in words, taenia coli: guinea pig taenia coli
T1 construct: Relaxant responses mediated via P2Y receptors were examined in guinea pig taenia coli; from tissue; host or cells: guinea pig taenia coli (carbachol-contracted)
From the text: (§1) Muscular relaxation/contraction: Relaxant responses mediated via P2Y receptors were examined in guinea pig taenia coli, rabbit aorta, and rabbit mesenteric artery, as described by Hoyle et al. (Br. J. Pharmacol., 107, 367-374 (1992a)), Burnstock et al., (Br. J. Pharmacol., 90, 383-391 (1987a)), and Rubino et al., (Eur. J. Pharmacol., 212, 237-240 (1992)). Contractile responses mediated via P2X receptors were examined in the guinea pig urinary bladder and vas deferens, and rabbit saphenous artery, also using standard methods (see Hoyle et al., supra., 1992; Hoyle et al., Br. J. Pharmacol., 99, 617-621 (1990); and Burnstock et al., Br. J. Pharmacol., 90, 111-120 (1987b)).
Muscular relaxation assays were performed as recited in Example 3. […] All curves are the mean of two determinations except for 5'-ATP (n=38), 2-hexylthio-ATP (n=4), 2-(5-hexenyl)thio-ATP (n=3), and 2-(2-4-nitrophenylethyl)thio-AMP (n=5). […] The pD2 value for 2-methylthio-ATP is 8.0±0.15, as reported by Hoyle et al., in Receptor Data for Biological Experiments, (H. N. Doods and J. C. A. Van Meel, eds., 1992b) at pp. 54-61.
(§2) Phospholipase C activity and muscle relaxation/contraction effects were assessed using the methods recited in Example 3. In FIGS. 10-12, which present the result of assays of phospholipase C activity in turkey erythrocyte membranes, the x-axis is marked in units of the log of the molar concentration of the putative P2Y receptor agonist tested and the y-axis is marked in units of the percentage of maximum production of [^3 H]-inositol phosphate generated. In FIG. 13, the x-axis is marked in units of the negative log of the molar concentration of applied putative P2Y receptor agonists and the y-axis is marked in units of the percentage relaxation of the 50 nM carbachol-induced contraction of guinea pig taenia coli. In FIG. 14, the x-axis is also marked in units of the negative log of the molar concentration of applied putative P2Y receptor agonists and the y-axis is marked in units of the percentage relaxation of the 1 μM noradrenalin-induced contraction of rabbit aorta endothelium. In FIGS. 15-16, the x-axis is marked in units of the negative log of the molar concentration of applied putative p^2X receptor agonists and the y-axis is marked in units of the percentage contraction relative to a standard dose of KCl (i.e., 60 mM), as assessed in guinea pig isolated urinary bladder detrussor muscle (FIG. 15) and guinea pig isolated vas deferens (FIG. 16).

[2] = target: P2Y receptor (mesenteric artery); experiment: Relaxation of rabbit mesenteric artery; conditions: for relaxation pD2, mes. artery: log molar units
[3] = target: T2, P2Y receptor (turkey erythrocyte membranes) (Meleagris gallopavo, UniProt P49652); experiment: Stimulation of phospholipase C (inositol phosphate formation) in turkey erythrocyte membranes; format: biochemical
T2 construct: from tissue; host or cells: washed turkey erythrocytes, ghosts prepared by hypotonic lysis
Protocol: Phospholipase C activity: Stimulation of inositol phosphate formation by compounds of the present invention was measured in turkey erythrocyte membranes as described by Harden et al., supra and Boyer et al., supra. The K0.5 values were averaged from 3-8 independently determined dose-response curves for each compound. Briefly, one ml of washed turkey erythrocytes was incubated in inositol-free medium (DMEM; Gibco) with 0.5-1 mCi of 2-[^3 H]myoinositol (20 Ci/mmol; American Radiolabeled Chemicals Inc., St. Louis, Mo.)for 18-24 h in a humidified atmosphere of 95% air 5% CO2 at 37° C. Erythrocyte ghosts were prepared by rapid lysis in hypotonic buffer (5 mM sodium phosphate, pH 7.4, 5 mM MgCl2, 1 mM EGTA) as described by Boyer et al., supra. Phospholipase C activity was measured in 25 μl of [^3 H]inositol-labeled ghosts (≈175 μg of protein, 200-500,000 cpm/assay) in a medium containing 424 μM CaC12, 0.91 mM MgSO4, 2 mM EGTA, 115 mM KCl, 5 mM KH2 PO4, and 10 mM Hepes, pH 7.0. Assay (100 μl or 200 μl final volume) contained 1 μM GTPγS and the indicated concentrations of nucleotide analogs. Ghosts were incubated at 30° C. for 5 min, and total [^3 H]inositol phosphates were quantitated after purification by anion exchange chromatography according to Harden et al. (supra) and Boyer et al. (supra).
as §2

[4] = target: T3, adenylyl cyclase linked P2Y receptor (C6 rat glioma cells) (Rattus norvegicus, UniProt Q9EPX4); experiment: Inhibition of adenylyl cyclase in C6 rat glioma cells; format: cell-based; conditions: for IC50: C6 rat glioma cells, 10 μM isoproterenol, read-out: K0.5 values (in nM) for inhibition of adenylyl cyclase in C6 cells; for selectivity for the adenylyl cyclase linked receptor, in words: versus phospholipase C linked receptor; for selectivity for the adenylyl cyclase linked (C6 cell) receptor: versus phospholipase C linked turkey erythrocyte receptor
T3 construct: endogenous in cells; host or cells: C6 rat glioma cells
Protocol: This example illustrates the inhibition of adenylyl cyclase activity in C6 rat glioma cells, as a function of the presence of certain ATP analogs in the medium in which the C6 cells were cultured.
Cells were labelled by incubation for 2 hours in the presence of 1 to 2 mCi of tritiated adenine/ml in the medium. Cells were washed twice with HEPES (20 mM, pH 7.5)-buffered Eagle's medium and then preincubated for 10 minutes at 37° C. with fresh medium containing 200 μM 3-isobutyl-1-methylxanthine. Agonist incubations were initiated by the simultaneous addition of 10 μM isoproterenol and various concentrations of nucleotides. The reactions were stopped after 10 minutes of aspiration of the nucleotide-containing medium and addition of 1 ml of ice-cold 5% trichloroacetic acid.

[5] = target: T4, P2X receptor (saphenous artery) (Oryctolagus cuniculus, UniProt G1U3D6); experiment: Contraction of rabbit saphenous artery; conditions: rabbit saphenous artery
T4 construct: and rabbit saphenous artery; from tissue; host or cells: rabbit saphenous artery
T4 sequence (G1U3D6 1-399): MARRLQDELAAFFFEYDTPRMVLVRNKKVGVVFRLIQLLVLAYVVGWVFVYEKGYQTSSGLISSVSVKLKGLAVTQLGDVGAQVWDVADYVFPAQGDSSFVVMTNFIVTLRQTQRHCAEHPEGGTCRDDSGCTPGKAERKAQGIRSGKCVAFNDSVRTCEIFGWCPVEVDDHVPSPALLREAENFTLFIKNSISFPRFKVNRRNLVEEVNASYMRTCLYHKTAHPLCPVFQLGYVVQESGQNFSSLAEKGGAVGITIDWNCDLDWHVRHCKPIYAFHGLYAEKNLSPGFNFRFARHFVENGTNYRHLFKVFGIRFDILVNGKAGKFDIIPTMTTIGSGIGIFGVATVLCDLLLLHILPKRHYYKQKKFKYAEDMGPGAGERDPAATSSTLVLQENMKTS
From the text: as §1
^c For the saphenous artery, the percentages in brackets are response
at 10 μM relative to the contraction produced by 1 μM α,MeATP
ATP in this assay is very weak (EC50 =
1.78 mM). The highest concentrations of the analogues tested were 3-30

[6] = tested on: P2Y receptor (aorta endothelium); experiment: Relaxation of noradrenalin-contracted rabbit aorta; conditions: for relaxation pD2, aorta: rabbit aorta, log molar units
[7] = target: T5, P2X receptor (urinary bladder) (Cavia porcellus, UniProt A0A286XVA9); experiment: Contraction of guinea pig isolated urinary bladder detrussor muscle; conditions: guinea pig urinary bladder
T5 construct: guinea pig isolated urinary bladder detrussor muscle; from tissue; host or cells: guinea pig isolated urinary bladder detrusor muscle

[8] = target: T6, P2X receptor (vas deferens) (Cavia porcellus, UniProt A0A286XVA9); experiment: Contraction of guinea pig isolated vas deferens
T6 sequence (A0A286XVA9 1-399): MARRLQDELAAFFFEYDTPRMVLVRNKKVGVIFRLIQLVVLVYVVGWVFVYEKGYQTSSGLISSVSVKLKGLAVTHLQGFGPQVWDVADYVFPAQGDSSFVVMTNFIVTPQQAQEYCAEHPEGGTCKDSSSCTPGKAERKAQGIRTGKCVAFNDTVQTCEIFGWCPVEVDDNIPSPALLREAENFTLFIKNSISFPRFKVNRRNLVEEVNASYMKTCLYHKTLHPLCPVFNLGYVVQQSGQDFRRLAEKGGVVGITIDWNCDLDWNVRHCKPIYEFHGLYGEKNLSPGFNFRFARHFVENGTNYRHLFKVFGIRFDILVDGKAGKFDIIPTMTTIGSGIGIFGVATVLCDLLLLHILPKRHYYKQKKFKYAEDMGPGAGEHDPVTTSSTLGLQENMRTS

[9] = turkey erythrocyte membranes, mean ± S.E.M. for at least 2 determinations, read-out: phosphatidyl inositol metabolism (K0.5, nM) erythrocyte
[10] = turkey erythrocyte membranes, read-out: K0.5

T2 sequence (P49652 whole entry): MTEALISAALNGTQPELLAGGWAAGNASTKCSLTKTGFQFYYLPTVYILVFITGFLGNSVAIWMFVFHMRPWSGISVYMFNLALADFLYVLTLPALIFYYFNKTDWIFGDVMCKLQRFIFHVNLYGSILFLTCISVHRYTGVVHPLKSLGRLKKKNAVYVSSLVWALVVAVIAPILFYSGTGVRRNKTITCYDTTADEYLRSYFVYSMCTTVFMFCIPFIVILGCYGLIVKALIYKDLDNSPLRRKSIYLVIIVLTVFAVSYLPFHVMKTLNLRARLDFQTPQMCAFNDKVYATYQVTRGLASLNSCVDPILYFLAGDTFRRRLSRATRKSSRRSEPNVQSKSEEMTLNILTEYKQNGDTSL
T1 sequence (P59902 whole entry): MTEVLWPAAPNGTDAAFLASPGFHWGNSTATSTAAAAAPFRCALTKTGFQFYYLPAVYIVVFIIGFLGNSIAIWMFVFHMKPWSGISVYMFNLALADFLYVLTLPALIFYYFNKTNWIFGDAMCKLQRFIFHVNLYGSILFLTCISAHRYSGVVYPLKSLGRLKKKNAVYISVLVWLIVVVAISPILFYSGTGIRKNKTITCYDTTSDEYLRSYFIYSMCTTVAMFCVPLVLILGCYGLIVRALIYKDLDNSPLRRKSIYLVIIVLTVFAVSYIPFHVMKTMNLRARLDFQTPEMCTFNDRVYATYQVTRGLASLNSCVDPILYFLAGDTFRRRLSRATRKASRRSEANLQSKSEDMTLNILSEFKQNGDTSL
T3 sequence (Q9EPX4 whole entry): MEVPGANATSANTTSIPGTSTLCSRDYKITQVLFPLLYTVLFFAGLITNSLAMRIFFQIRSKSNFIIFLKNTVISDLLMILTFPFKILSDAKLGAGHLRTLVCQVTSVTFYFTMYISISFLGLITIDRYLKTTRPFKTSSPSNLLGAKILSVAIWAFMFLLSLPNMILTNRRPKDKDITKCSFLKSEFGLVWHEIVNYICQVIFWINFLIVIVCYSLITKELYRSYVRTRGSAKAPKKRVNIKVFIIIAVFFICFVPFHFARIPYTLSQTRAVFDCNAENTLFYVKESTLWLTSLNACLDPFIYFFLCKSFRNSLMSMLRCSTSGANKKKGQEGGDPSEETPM

Nc1nc(SCCc2ccc([N+](=O)[O-])cc2)nc2c1ncn2[C@@H]1O[C@H](COP(=O)(O)OP(=O)(O)OP(=O)(O)O)[C@@H](O)[C@H]1O [2-(2-p-Nitrophenylethyl)-thio-ATP, 2[2-(p-Nitrophen)ethylthio]adenosine 5'-triphosphate]
EC50 [1]: 31.6 nM | relaxation pD2, mes. artery [2]: 7.0 | activity/potency in words, turkey erythrocyte ([3]; turkey erythrocyte membranes): at least two orders of magnitude more potent | EC50 [3, 9]: 12 ± 4 nM | EC50 [3, 10]: 5 to 30 nM | IC50 [4]: 1 ± 0.4 nM | selectivity for the adenylyl cyclase linked receptor, in words [4]: only moderate selectivity for C6 cell receptors | activation at 10 µM ([5]; 10 μM, read-out: response at 10 μM relative to the contraction produced by 1 μM α,MeATP, saph. artery): 2.6% | relaxation pD2, aorta [6]: 6.2

C=CCCCCSc1nc(N)c2ncn([C@@H]3O[C@H](COP(=O)(O)OP(=O)(O)O)[C@@H](O)[C@H]3O)c2n1 [2-(5-Hexenyl)thio-ADP, 2-(5-hexenylthio)-adenosine 5'-diphosphate]
EC50 [1]: 3.63 nM | EC50 [3, 9]: 6.8 ± 3 nM | EC50 [3, 10]: 4 nM | IC50 [4]: 0.07 ± 0.02 nM | selectivity for the adenylyl cyclase linked receptor, in words [4]: approximately the same degree of selectivity

C=CCCCCSc1nc(N)c2ncn([C@@H]3O[C@H](COP(=O)(O)O)[C@@H](O)[C@H]3O)c2n1 [2-(5-Hexenyl)thio-AMP, 2-(5-hexenylthio)adenosine 5'-monophosphate]
EC50 [1]: 1000 nM | relaxation pD2, mes. artery [2]: 6.3 | fold less potent than the corresponding triphosphate, turkey erythrocyte ([3]; relative to corresponding triphosphate): 33 -fold | EC50 [3, 9]: 328 ± 43 nM | IC50 [4]: 2 ± 0.18 nM | relaxation pD2, aorta [6]: 7.0

C=CCCCCSc1nc(N)c2ncn([C@@H]3O[C@H](COP(=O)(O)OP(=O)(O)OP(=O)(O)O)[C@@H](O)[C@H]3O)c2n1 [2-(S-Hexenyl)thio-ATP, 2-(5-hexenylthio)adenosine 5'-triphosphate]
EC50 [1]: 12.6 nM | activity/potency in words, taenia coli [1]: significantly more potent than ATP itself, at least by one order of magnitude | relaxation pD2, mes. artery [2]: 7.0 | activity/potency in words, turkey erythrocyte ([3]; turkey erythrocyte membranes): at least two orders of magnitude more potent | EC50 [3, 9]: 10 ± 4 nM | EC50 [3, 10]: 5 to 30 nM and 10 nM | IC50 [4]: 0.12 ± 0.06 nM

CCCCCCSc1nc(N)c2ncn([C@@H]3O[C@H](COP(=O)(O)OP(=O)(O)OP(=O)(O)O)[C@@H](O)[C@H]3O)c2n1 [2-Hexylthio-ATP, 2-hexylthio-ATP]
EC50 [1]: 31.6 nM | activity/potency in words, taenia coli [1]: significantly more potent than ATP itself, at least by one order of magnitude | relaxation pD2, mes. artery [2]: 6.7 | activity/potency in words, turkey erythrocyte ([3]; turkey erythrocyte membranes): at least two orders of magnitude more potent | EC50 [3, 9]: 5 ± 1 nM | EC50 [3, 10]: 5 to 30 nM | IC50 [4]: 0.03 ± 0.005 nM | selectivity for the adenylyl cyclase linked (C6 cell) receptor [4]: 170 -fold | relaxation pD2, aorta [6]: 6.7

O=c1[nH]c(=O)n([C@@H]2O[C@H](COP(=O)(O)OP(=O)(O)OP(=O)(O)O)[C@@H](O)[C@H]2O)cc1F [5-F-UTP, 5-Fluorouridine 5'-triphosphate]
activity/potency in words, taenia coli [1]: only a weak agonist | activity/potency in words, mesenteric artery [2]: inactive | activity/potency in words, turkey erythrocyte ([3]; turkey erythrocyte membranes): only a weak agonist | EC50 [3, 9]: > 100000 nM | activity/potency in words, bladder [7]: more potent than ATP; also recorded: as potent as or more potent than ATP in the bladder | activity/potency in words, vas deferens [8]: inactive; also recorded: without effect in the vas deferens | activity/potency in words, saphenous artery [5]: inactive | activity/potency/selectivity in words, aorta ([6]; rabbit aorta endothelial P2Y receptor): more potent than ATP | relaxation pD2, aorta [6]: 6.0

Nc1ncnc2c1ncn2[C@@H]1O[C@H](COP(=O)(O)OP(=O)(O)O)[C@@H](O)[C@H]1O [ADP, adenosine 5'-diphosphate, reference compound]
activity/potency in words, taenia coli [1]: equipotent to ATP | relaxation pD2, mes. artery [2]: 5.2 | EC50 ([3]; K0.5, turkey erythrocyte membranes, read from graph): 3160 nM | fold less potent than ATP, turkey erythrocyte ([3]; relative to ATP): 3 -fold | EC50 [3, 9]: 8000 ± 2000 nM | activity/potency in words, bladder [7]: equipotent with ATP | activity/potency in words, vas deferens [8]: less potent than ATP | selectivity for the adenylyl cyclase linked (C6 cell) receptor [4]: 120 -fold | relaxation pD2, aorta [6]: 5.2
